Test results taken from the supplement of paper PMC11208160.

Assay: recombinant UMI read abundance after kanamycin selection (control-corrected) (log10(CPM+1)); higher = more efficient recombination; extreme values may be limits of the assay; sequences stand for … in AGTGCAGAGAAAATCGGCCAGTTTTCTCTGCCTGCAGTCCGCATGCCGTGGGACCCCTTGGGTTCTAACCTGTTGCCTAGATTTATGCAGCGGACTGCCTTTCTCCCAAAGTGATAAACCGG…AGGTTGGTTTCACT; site = the 11-nt donor
Procedure, shortened: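 Sequencing read counts were converted to CPM, averaged over two replicates and scaled by control-derived factors. Results are given as log10(CPM+1). The reads covered the donor–target junction of recombinant UMIs from a pooled Escherichia coli screen of donor and donor-binding-loop pairs for the IS621 bridge recombinase.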
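Also: IS621 bridge recombinase in Escherichia coli cells against a fixed T5 target plasmid.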

Row | Sequence | recombinant UMI read abundance (log10)
1 | CTGAGGCCATGGACCGGTTTTCCCGGTAATCCGTATTTGGT (site CTGAGGCCTAC) | 0
2 | CTGATACCATGGACCGGTTTTCCCGGTAATCCGTATTTGCT (site CTGATACCTAG) | 0.00587
3 | CTGATACCATGGACCGGTTTTCCCGGTAATCCGTATTTGCT (site CTGCTACCTAG) | 0
4 | CTGATACCATGGACCGGTTTTCCCGGTAATCCGTATTTGCT (site CTGGTACCTAG) | 0
5 | CTGATACCATGGACCGGTTTTCCCGGTAATCCGTATTTGCT (site CTGTTACCTAG) | 0
6 | CTGCACACATGGACCGGTTTTCCCGGTAATCCGTATTTGAT (site CTGCACACTAT) | 2.25
7 | CTGCCACCATGGACCGGTTTTCCCGGTAATCCGTATTTGCT (site CTGCAACCTAG) | 0
8 | CTGCCACCATGGACCGGTTTTCCCGGTAATCCGTATTTGCT (site CTGCCACCTAG) | 0.00511
9 | CTGCCACCATGGACCGGTTTTCCCGGTAATCCGTATTTGCT (site CTGCGACCTAG) | 0
10 | CTGCCACCATGGACCGGTTTTCCCGGTAATCCGTATTTGCT (site CTGCTACCTAG) | 0
11 | CTGCCCACATGGACCGGTTTTCCCGGTAATCCGTATTTGCG (site CTGCCCACTCG) | 1.76
12 | CTGCGAGCATGGACCGGTTTTCCCGGTAATCCGTATTTGCA (site CTGCGAGCTTG) | 0.942
13 | CTGCGTTCATGGACCGGTTTTCCCGGTAATCCGTATTTGGA (site CTGCGTTCTTC) | 1.44
14 | CTGCTAACATGGACCGGTTTTCCCGGTAATCCGTATTTGCC (site CTGCTAACTGG) | 2.21
15 | CTGCTACCATGGACCGGTTTTCCCGGTAATCCGTATTTGAT (site CTGCTACCTAA) | 0.0178
16 | CTGCTACCATGGACCGGTTTTCCCGGTAATCCGTATTTGAT (site CTGCTACCTAC) | 0.00934
17 | CTGCTACCATGGACCGGTTTTCCCGGTAATCCGTATTTGAT (site CTGCTACCTAG) | 0.00723
18 | CTGCTACCATGGACCGGTTTTCCCGGTAATCCGTATTTGAT (site CTGCTACCTAT) | 0.00649
19 | CTGCTACCATGGACCGGTTTTCCCGGTAATCCGTATTTGCC (site CTGCTACCTAG) | 0
20 | CTGCTACCATGGACCGGTTTTCCCGGTAATCCGTATTTGCC (site CTGCTACCTCG) | 0.00838
21 | CTGCTACCATGGACCGGTTTTCCCGGTAATCCGTATTTGCC (site CTGCTACCTGG) | 0
22 | CTGCTACCATGGACCGGTTTTCCCGGTAATCCGTATTTGCC (site CTGCTACCTTG) | 0
23 | CTGCTACCATGGACCGGTTTTCCCGGTAATCCGTATTTGCT (site ATGCTACCTAG) | 0.00358
24 | CTGCTACCATGGACCGGTTTTCCCGGTAATCCGTATTTGCT (site CAGCTACCTAG) | 0
25 | CTGCTACCATGGACCGGTTTTCCCGGTAATCCGTATTTGCT (site CCGCTACCTAG) | 0

Row | Sequence | recombinant UMI read abundance (log10)
26 | CTGCTACCATGGACCGGTTTTCCCGGTAATCCGTATTTGCT (site CGGCTACCTAG) | 0
27 | CTGCTACCATGGACCGGTTTTCCCGGTAATCCGTATTTGCT (site CTACTACCTAG) | 0
28 | CTGCTACCATGGACCGGTTTTCCCGGTAATCCGTATTTGCT (site CTCCTACCTAG) | 0
29 | CTGCTACCATGGACCGGTTTTCCCGGTAATCCGTATTTGCT (site CTGATACCTAG) | 0
30 | CTGCTACCATGGACCGGTTTTCCCGGTAATCCGTATTTGCT (site CTGCAACCTAG) | 0
31 | CTGCTACCATGGACCGGTTTTCCCGGTAATCCGTATTTGCT (site CTGCCACCTAG) | 0.00361
32 | CTGCTACCATGGACCGGTTTTCCCGGTAATCCGTATTTGCT (site CTGCGACCTAG) | 0
33 | CTGCTACCATGGACCGGTTTTCCCGGTAATCCGTATTTGCT (site CTGCTAACTAG) | 0.00893
34 | CTGCTACCATGGACCGGTTTTCCCGGTAATCCGTATTTGCT (site CTGCTACCTAA) | 0.0092
35 | CTGCTACCATGGACCGGTTTTCCCGGTAATCCGTATTTGCT (site CTGCTACCTAC) | 0.00952
36 | CTGCTACCATGGACCGGTTTTCCCGGTAATCCGTATTTGCT (site CTGCTACCTAG) | 0
37 | CTGCTACCATGGACCGGTTTTCCCGGTAATCCGTATTTGCT (site CTGCTACCTAT) | 0
38 | CTGCTACCATGGACCGGTTTTCCCGGTAATCCGTATTTGCT (site CTGCTACCTCG) | 0.0163
39 | CTGCTACCATGGACCGGTTTTCCCGGTAATCCGTATTTGCT (site CTGCTACCTGG) | 0
40 | CTGCTACCATGGACCGGTTTTCCCGGTAATCCGTATTTGCT (site CTGCTACCTTG) | 0
41 | CTGCTACCATGGACCGGTTTTCCCGGTAATCCGTATTTGCT (site CTGCTAGCTAG) | 0
42 | CTGCTACCATGGACCGGTTTTCCCGGTAATCCGTATTTGCT (site CTGCTATCTAG) | 1.67
43 | CTGCTACCATGGACCGGTTTTCCCGGTAATCCGTATTTGCT (site CTGCTCCCTAG) | 0.543
44 | CTGCTACCATGGACCGGTTTTCCCGGTAATCCGTATTTGCT (site CTGCTGCCTAG) | 0.038
45 | CTGCTACCATGGACCGGTTTTCCCGGTAATCCGTATTTGCT (site CTGCTTCCTAG) | 0
46 | CTGCTACCATGGACCGGTTTTCCCGGTAATCCGTATTTGCT (site CTGGTACCTAG) | 0
47 | CTGCTACCATGGACCGGTTTTCCCGGTAATCCGTATTTGCT (site CTGTTACCTAG) | 0
48 | CTGCTACCATGGACCGGTTTTCCCGGTAATCCGTATTTGCT (site CTTCTACCTAG) | 0
49 | CTGCTACCATGGACCGGTTTTCCCGGTAATCCGTATTTGCT (site GTGCTACCTAG) | 0
50 | CTGCTACCATGGACCGGTTTTCCCGGTAATCCGTATTTGCT (site TTGCTACCTAG) | 0.00622

Row | Sequence | recombinant UMI read abundance (log10)
51 | CTGCTCTCATGGACCGGTTTTCCCGGTAATCCGTATTTGTA (site CTACTCTCTTA) | 2.71
52 | CTGCTCTCATGGACCGGTTTTCCCGGTAATCCGTATTTGTA (site CTCCTCTCTTA) | 0.876
53 | CTGCTCTCATGGACCGGTTTTCCCGGTAATCCGTATTTGTA (site CTGCTCTCTTA) | 2.98
54 | CTGCTCTCATGGACCGGTTTTCCCGGTAATCCGTATTTGTA (site CTTCTCTCTTA) | 1.06
55 | CTGCTGACATGGACCGGTTTTCCCGGTAATCCGTATTTGAC (site CTGCTGACTGT) | 1.02
56 | CTGCTTGCATGGACCGGTTTTCCCGGTAATCCGTATTTGAT (site CTGCTTGCTAT) | 2.21
57 | CTGGAAACATGGACCGGTTTTCCCGGTAATCCGTATTTGCT (site CTGGAAACTAG) | 2.45
58 | CTGGAAACATGGACCGGTTTTCCCGGTAATCCGTATTTGCT (site CTGGAAACTCG) | 0.534
59 | CTGGAAACATGGACCGGTTTTCCCGGTAATCCGTATTTGCT (site CTGGAAACTGG) | 1.1
60 | CTGGAAACATGGACCGGTTTTCCCGGTAATCCGTATTTGCT (site CTGGAAACTTG) | 0.49
61 | CTGGAAACATGGACCGGTTTTCCCGGTAATCCGTATTTGGA (site CTGGAAACTTA) | 0.993
62 | CTGGAAACATGGACCGGTTTTCCCGGTAATCCGTATTTGGA (site CTGGAAACTTC) | 1.89
63 | CTGGAAACATGGACCGGTTTTCCCGGTAATCCGTATTTGGA (site CTGGAAACTTG) | 0
64 | CTGGAAACATGGACCGGTTTTCCCGGTAATCCGTATTTGGA (site CTGGAAACTTT) | 2.09
65 | CTGGAGACATGGACCGGTTTTCCCGGTAATCCGTATTTGCA (site CTGGAAACTTG) | 2.32
66 | CTGGAGACATGGACCGGTTTTCCCGGTAATCCGTATTTGCA (site CTGGACACTTG) | 2.12
67 | CTGGAGACATGGACCGGTTTTCCCGGTAATCCGTATTTGCA (site CTGGAGACTTG) | 2.66
68 | CTGGAGACATGGACCGGTTTTCCCGGTAATCCGTATTTGCA (site CTGGATACTTG) | 1.03
69 | CTGGCAACATGGACCGGTTTTCCCGGTAATCCGTATTTGCA (site CTGGAAACTTG) | 0
70 | CTGGCAACATGGACCGGTTTTCCCGGTAATCCGTATTTGCA (site CTGGCAACTTG) | 1.01
71 | CTGGCAACATGGACCGGTTTTCCCGGTAATCCGTATTTGCA (site CTGGGAACTTG) | 0
72 | CTGGCAACATGGACCGGTTTTCCCGGTAATCCGTATTTGCA (site CTGGTAACTTG) | 0
73 | CTGGCACCATGGACCGGTTTTCCCGGTAATCCGTATTTGGC (site CTGGCACCTGC) | 0.523
74 | CTGGCTGCATGGACCGGTTTTCCCGGTAATCCGTATTTGCG (site CTGGCTGCTCG) | 0.887
75 | CTGGTACCATGGACCGGTTTTCCCGGTAATCCGTATTTGCT (site CTGATACCTAG) | 0
